Assays:
aorta = experiment: Isometric contraction force of isolated aortic rings precontracted by KCl; format: cell-based, guinea pigs; conditions: for EC50: Cavia porcellus, aortic rings precontracted by 90 mmol/l KCl, Krebs-Henseleit solution, 37°C
Description: (§1) The COS-releasing compounds according to the present invention were tested on isolated muscle-preparations of the aorta, arteria pulmonalis, terminal ileum, papillary muscle and the right atrium (derived from guinea pigs) for their vasodilatory effect.
(§2) Guinea pigs of both sexes (340-480 g) were killed with a blow on the neck. After excision of the heart, the aorta and the ileum were dissected. The aorta was cleaned of loosely adhering fat and connective tissue and cut into rings of 2 mm width. The terminal portion of the ileum was removed and the 10 cm nearest to the caecum were discarded. The intestine was placed in a nutrient solution. The intestine was cleaned by flushing with nutrient solution and cut into pieces of 2 to 3 cm length. The arteria pulmonalis was dissected close to the heart, cleaned and cut into rings of 2 mm width. Papillary muscles were dissected from the right ventricle for contractility measurements. Purkinje fibres were carefully removed to prevent spontaneous activity. Only muscles with a diameter of less than 0.87 mm were used in order to have a sufficient oxygen supply. Chronotropic activity was tested on guinea-pig isolated right atria.
(§3) After isolation the preparations (aortic rings, terminal ilea, arteria pulmonalis rings, papillary muscles and right atria) were stored at room temperature in gassed (95% O2-5% CO2) Krebs-Henseleit solution with the following composition (in mmol/l): NaCl 114.9, KCl 4.73, CaCl2 3.2, MgSO4 1.18, NaHCO3, 24.9, KH2PO4 1.18, glucose 10; pH 7.2-7.4.
(§4) Isometric contraction force of electrically stimulated papillary muscles (1 Hz), terminal ilea precontracted by 60 mmol/l KCl, aortic and arteria pulmonalis rings precontracted by 90 mmol/l KCl as well as spontaneous activity of right atria was measured by the method described by Reiter (Reiter, M. Bioassay of inotropic agents on the isolated papillary muscle. Arzneim. Forsch. 1967, 17, 1249-1253).
(§5) The preparations were placed in a continuously oxygenated (95% O2 and 5% CO2) bath of 35 ml nutrient solution to guarantee sufficient oxygen supply and appropriate pH as well as circulation of nutrient solution with and without test compound. The experiments were performed at a temperature of 37±1° C. The smooth and heart muscle preparations were connected with one end to a tissue holder and the other to a force transducer (Transbridge™, 4-Channel Transducer Amplifier, World Precision Instruments, Sarasota, Fla., USA). Papillary muscles were electrically driven with an Anapulse Stimulator Model 301-T and an Isolation Unit Model 305-1 (WPI, Hamden, Conn., USA) at a frequency of 1 Hz and a pulse duration of 3 ms. Amplitude of stimulation pulse was adjusted 10% above threshold level. Resting tension of either 3.92 mN (papillary muscles), 10.37 mN (right atria) or 19.6 mN (aortic and arteria pulmonalis rings) was kept constant throughout the experiments.
(§6) Signals were recorded with a chart recorder (BD 112 Dual Channel, Kipp & Zonen) and evaluated. For statistical analyses the arithmetic means and standard error of the mean (SEM) of n experiments were calculated. Statistical significance of the results was evaluated by the Student's t-test for paired observations. EC50-values were graphically determined from the concentration response curves.
(§7) Stock solutions of the compounds were dissolved in distilled water every day and were further diluted with modified Krebs-Henseleit solution to the required concentrations (1, 3, 10, 30 and 100 μmol/l).

arteria pulmonalis = experiment: Isometric contraction force of isolated arteria pulmonalis rings precontracted by KCl; format: cell-based, guinea pigs; conditions: Cavia porcellus; arteria pulmonalis rings precontracted by 90 mmol/l KCl
Description: as §1, §2, §3, §4, §5, §6, §7

terminal ileum = experiment: Isometric contraction force of isolated terminal ilea precontracted by KCl; format: cell-based, guinea pigs; conditions: Cavia porcellus; terminal ilea precontracted by 60 mmol/l KCl
Description: as §1, §2, §3, §4, §5, §6, §7

papillary muscle = experiment: Isometric contraction force of electrically stimulated papillary muscles; format: cell-based, guinea pigs; conditions: Cavia porcellus; electrically stimulated (1 Hz)
Description: as §1, §2, §3, §4, §5, §6, §7

right atrium = experiment: Spontaneous (chronotropic) activity of isolated right atria; format: cell-based, guinea pigs; conditions: Cavia porcellus
Description: as §1, §2, §3, §4, §5, §6, §7

aortic rings = experiment: Contraction force of aortic rings in blood plasma; format: cell-based, guinea pigs; conditions: 100 μM, guinea pig blood plasma, KCl 90 mM, after 60 minutes
Description: Guinea pigs of both sexes (340-480 g) were killed with a blow on the neck. The thorax was opened immediately and heparinized blood was collected. After centrifugation of the blood, the blood plasma was obtained which was used in the further experiments. Further, the aorta of the guinea pigs was excised and prepared as described in 4.3. Thus, the aortic rings were present at room temperature in Krebs-Henseleit solution and put under a resting tension. The contraction force was determined as described under 4.3. A stock solution of CRC80HCl in distilled water was prepared. CRC80HCl was used in a final concentration of 100 μM in the experiments.
In a second experiment, the Krebs-Henseleit solution was exchanged with blood plasma of the guinea pigs gained as described above prior to the addition of CRC80HCl. Thus, the Krebs-Henseleit solution was exchanged by 6 ml blood plasma and KCl was added 15 minutes later to a final concentration of 90 mM. Once a steady state was reached, CRC80HCl was added to a final concentration of 100 μM and the contraction force was recorded over a period of 60 minutes. After the period of 60 minutes, a decrease of the contraction force of 39% was observed.

isolated mouse heart = experiment: Isolated mouse heart, Langendorff perfusion; format: cell-based, female OF-1 mice
Description: Hearts from female OF-1 mice were excised, cannulated and perfused retrogradely, according to the Langendorff technique, with modified oxygenated Krebs-Henseleit-buffer at constant pressure. After 15 min of baseline perfusion, CRC1HCl (10 μM) was administered into the coronary perfusion system for 10 min. Coronary flow (CF), heart rate (HR), aortic pressure (AoP), concentrations of K^+, Na^+, Ca^2+ and the pH-value were monitored throughout the whole experiment (CRC1HCl-group, n=8; control group, n=8).
In a second set of experiments in the setup as described above, nitro-L-arginine (L-NA) (n=6) and PNU-37883A (n=4) were evaluated as potential inhibitors of CRC1HCl (10 μM) activity. The compounds were added to final concentrations of 100 μM (L-NA) and 10 μM (PNU-37883A).
Also, the myocardial consumption of lactate and glucose was monitored in both the control-group and the CRC1HCl-group.

[1] = system: smooth muscle preparations; experiment: Vasodilatory activity on smooth muscle preparations (preparation not specified); format: cell-based, guinea pigs; conditions: for vasodilatory activity on smooth muscle preparations: setup of 4.3, aqueous solution; for EC50: Cavia porcellus, setup of 4.3, preparation not specified, read-out: EC50 vasodilatory activity (negative controls)
Description: as §1, §2, §3, §4, §5, §6, §7
Compounds CRC59, CRC59HCl, CRC60 and CRC60HCl as indicated in the table below were used as negative controls in the present experimental setup. Due to the exchange of sulfur against oxygen, said compounds are not able to release COS.

[2] = Stability in aqueous solution (concluded from inactivity in aqueous setup); format: physicochemical; conditions: conditions of 4.3
Source text: Some of the COS releasing compounds according to formula (I) may, however, release COS in a spontaneous hydrolysis reaction due to the presence of H2O in aqueous solutions, suspensions, and the like. Said compounds may also be referred to as being “instable compounds” in aqueous solutions. The determination of the stability of COS releasing compounds according to the present invention may easily be determined, e.g. by dissolving a compound to be tested in an aqueous solution and determining the amount of COS released over time.

[3] = 10 μM, vs control, data not shown

Row | SMILES | EC50 (aorta) [µM] | EC50 (arteria pulmonalis) [µM] | EC50 (terminal ileum) [µM] | EC50 (papillary muscle) [µM] | EC50 (right atrium) [µM] | also measured
1 | CCOC(=O)CCSC(=S)n1ccnc1 [CRC11HCl] | 16 | 19.8 | 32.1 | > 100 | > 100 | 
2 | COc1ccc2ncn(C(=S)SC)c2c1 [CRC6] |  |  |  |  |  | melting point: 64 to 87 °C
3 | CCOC(=S)OCCCN(C)C.Cl [CRC80HCl] |  |  |  |  |  | vasodilatory activity on the aortic ring in Krebs-Henseleit solution (aorta; 100 μM, period of 45 minutes): did not show a vasodilatory activity; decrease of the contraction force (aortic rings): 39%
4 | CSC(=S)n1ccnc1C [CRC5HCl] | 6.3 | 11.2 | 9.5 | > 100 | > 100 | 
5 | S [H2S, hydrogen sulfide, reference compound] | 107 |  |  |  |  | 
6 | CSC(=S)n1ccnc1.Cl [CRC1HCl] | 7.8 | 6.9 | 5.7 | 78 | > 100 | aortic pressure (AoP) (isolated mouse heart; 10 μM for 10 min, vs control): not significantly affected or altered; concentration of Ca2+ in coronary effusate (isolated mouse heart; 10 μM for 10 min, vs control): not significantly affected or altered; concentration of K+ in coronary effusate (isolated mouse heart; 10 μM for 10 min, vs control): not significantly affected or altered; concentration of Na+ in coronary effusate (isolated mouse heart; 10 μM for 10 min, vs control): not significantly affected or altered; heart rate (HR) (isolated mouse heart; 10 μM for 10 min, vs control): not significantly affected or altered; pH-value of coronary effusate (isolated mouse heart; 10 μM for 10 min, vs control): not significantly affected or altered; coronary flow (CF) (isolated mouse heart; 10 μM for 10 min, during and 30 minutes after administration, vs control, p<0.05): significantly increased; myocardial consumption of glucose (isolated mouse heart; [3]): not significantly affected or altered; myocardial consumption of lactate (isolated mouse heart; [3]): not significantly affected or altered; effect of inhibition of ATP-sensitive potassium-channels on the vasodilatory effect (isolated mouse heart; CRC1HCl 10 μM with PNU-37883A 10 μM, data not shown): had no effect; effect of inhibition of nitric oxide synthase on the vasodilatory effect (isolated mouse heart; CRC1HCl 10 μM with nitro-L-arginine 100 μM, data not shown): had no effect
7 | S=C(SCc1ccccc1)n1ccnc1 [CRC8HCl] | 20.1 | 63 | 15.3 | 26 | > 100 | 
8 | S=C(N1CCN(C(=S)n2ccnc2)CC1)n1ccnc1 [CRC66] |  |  |  |  |  | melting point: 225 to 226 °C
9 | CSC(=S)n1c(C)nc2ccccc21 [CRC4HCl] | 22.8 | 25.1 | 25.6 | > 100 | 56 | 
10 | O=C(OC1CCCCC1)n1ccnc1 [CRC59] |  |  |  |  |  | vasodilatory activity on smooth muscle preparations [1]: did not show vasodilatory activity
11 | Cc1nccn1C(=S)SCc1ccccc1 [CRC9HCl] | 3.36 | 10.5 | 17.2 | > 100 | 15.3 | 
12 | COc1ccc(CSC(=S)n2ccnc2)cc1 [CRC10HCl] | 12.8 | 24 | 100 | > 100 | > 100 | 
13 | CC(C)OC(=O)n1ccnc1.Cl [CRC60HCl] |  |  |  |  |  | EC50 [1]: > 100 µM; vasodilatory activity on smooth muscle preparations [1]: did not show vasodilatory activity
14 | CC(C)OC(=O)n1ccnc1 [CRC60] |  |  |  |  |  | vasodilatory activity on smooth muscle preparations [1]: did not show vasodilatory activity
15 | Cl.O=C(OC1CCCCC1)n1ccnc1 [CRC59HCl] |  |  |  |  |  | EC50 [1]: > 100 µM; vasodilatory activity on smooth muscle preparations [1]: did not show vasodilatory activity
16 | CN(C)CCOC(=S)OCCN(C)C.Cl.Cl [CRC72HCl] |  |  |  |  |  | vasodilatory activity on smooth muscle preparations [1]: inactive; stability in aqueous solutions [2]: stable in aqueous solutions

Further lines, with some results ahead:

Row | EC50 (aorta) [µM] | EC50 (arteria pulmonalis) [µM] | EC50 (terminal ileum) [µM] | EC50 (papillary muscle) [µM] | EC50 (right atrium) [µM] | SMILES | also measured
17 | 5.75 | 24 | 100 | 77 | > 100 | CC(=O)OCCSC(=S)n1ccnc1 [CRC13HCl] | 
18 | 2.98 | 7.9 | 15.3 | > 100 | 26.5 | COc1cc(CSC(=S)n2ccnc2)cc(OC)c1OC [CRC33] | melting point: 110 to 113 °C
